Our source for the IC50 values is patent US20250214993A1, “AROMATIC RING COMPOUND AND USE THEREOF” (SHANGHAI SHIJIANG BIOTECHNOLOGY CO., LTD, priority 2022, published 2025).

The subject of assay [1] is Con-NCI-H82 cell. Description: Cell viability (Promega CellTiter-Glo, intracellular ATP), IC50 on Con-NCI-H82 cell. Conditions: Homo sapiens; normal untreated NCI-H82 cell (control). The assay is classed as cell-based. From the text: (§1) The expression of NNMT protein in NCI-H82 cell was overexpressed by inserting the NNMT gene into NCI-H82 cell using a viral vector, and the NNMT protein-overexpressing NCI-H82 cell (ov-NNMT NCI-H82 cell) was obtained. The normal and untreated NCI-H82 cell (Con-NCI-H82 cell) was used as control. The expressing content of NNMT protein in the ov-NNMT NCI-H82 cell and Con-NCI-H82 cell was detected using Western Blot assay (as shown in FIG. 1), it could be seen from FIG. 1 that the NNMT protein was overexpressed in the ov-NNMT NCI-H82 cell compared with the expression level of NNMT protein in the Con-NCI-H82 cell.
(§2) The cell viability was detected using the Promega CellTiter-Glo kit which reflected cell viability by measuring intracellular ATP content. The Con-NCI-H82 cell and ov-NNMT NCI-H82 cell was cultured in 10% fetal bovine serum-containing RPMI1640 medium (+P/S).
In general terms: In ATP-based viability assays light output follows the ATP content of the culture.

For assay [2], the system named is ov-NNMT NCI-H82 cell. Description: Cell viability (Promega CellTiter-Glo, intracellular ATP), IC50 on NNMT-overexpressing NCI-H82 cell. The assay is classed as cell-based. The settings on record: Homo sapiens; NCI-H82 cell overexpressing NNMT protein.
Excerpt: as §1, §2

As usually defined, the IC50 is the concentration needed to halve the response being measured. Consider `Cc1c(Cl)c2c[n+](Cc3ccccc3)ccc2n1CC(=O)c1cccc(C(F)(F)F)c1` [AB27484], for which the IC50 amounted to 1190 nM in assay [1] and 8030 nM in assay [2].
The matching figures for `Cc1cccc(C(=O)Cn2cc(C)c3c[n+](Cc4ccccc4)ccc32)c1` [AB27267]: 113 nM and 903 nM.
On to `O=C(Cn1ccc2c[n+](Cc3ccccc3)ccc21)c1cccc(Cl)c1` [AB27258], for which the values for the IC50 in assay [1] and in assay [2] were 14 nM and 276 nM, respectively.
Regarding `O=C1c2cc(Cl)ccc2CCC1n1ccc2c[n+](Cc3cccc(Cl)c3)ccc21` (centres unmarked) [AB27244], the values for the IC50 in assay [1] and in assay [2] were 24 nM and 342 nM, respectively.
The corresponding values for `O=C(Cn1ccc2c[n+](Cc3ccccc3)ccc21)c1cccc(C(F)(F)F)c1` [AB27262] are 57 nM and 1000 nM.
The matching figures for `Cc1cn(CC(=O)c2cccc(F)c2)c2cc[n+](Cc3ccccc3)cc12` [AB27478]: 23 nM and 283 nM.
The corresponding values for `CCCn1ccc2c[n+](C3CCc4ccc(Cl)cc4C3=O)ccc21` (centres unmarked) [AB27253] are 1680 nM and 5480 nM.
`Cc1cn(CC(=O)c2ccc(OC(F)(F)F)cc2)c2cc[n+](Cc3ccccc3)cc12` [AB27461]: the concentration for half-maximal inhibition (IC50) is 1980 nM in assay [1] and 9350 nM in assay [2].
Take `CCCCCn1ccc2c[n+](C3CCc4ccc(Cl)cc4C3=O)ccc21` (centres unmarked) [AB27250]: the IC50 was 51 nM in assay [1] and 684 nM in assay [2].
The corresponding values for `O=C(C[n+]1ccc2c(c1)CCC(c1ccccc1)N2)c1ccc(C(F)(F)F)cc1` (centres unmarked) [AB27102] are 1160 nM and 4590 nM.
Take `Cc1ccc(C(=O)CN(C)c2cc[n+](Cc3ccccc3)cc2)cc1` [AB27285]: the IC50 in assay [1] turned out to be 364 nM; in assay [2], 1350 nM.
For the compound `CCCCCn1ccc2c[n+](C3CCc4ccc(OC(F)(F)F)cc4C3=O)ccc21` (centres unmarked) [AB27249], the IC50 in assay [1] is 222 nM; in assay [2], 1520 nM.
As to `CC(C)n1ccc2c[n+](C3CCc4ccc(OC(F)(F)F)cc4C3=O)ccc21` (centres unmarked) [AB27157], the half-inhibitory concentration (IC50) in assay [1] turned out to be 1530 nM; in assay [2], 6320 nM.
For the compound `CC(c1ccccc1)[n+]1ccc2c(ccn2C2CCc3ccoc3C2=O)c1` (centres unmarked) [AB27205], the figures for the IC50 in assay [1] and in assay [2] were 2790 nM and 9490 nM, respectively.
The matching figures for `O=C1c2cc(Cl)ccc2CCC1n1ccc2c[n+](Cc3ccc(Cl)cc3)ccc21` (centres unmarked) [AB27245]: 88 nM and 868 nM.
In the case of `Cc1c(C)n(CC(=O)c2cccc(C(F)(F)F)c2)c2cc[n+](Cc3ccccc3)cc12` [AB27493], the results for the IC50 in assay [1] and in assay [2] were 281 nM and 3450 nM, respectively.
In the case of `CC(C)n1ccc2c[n+](C3CCc4ccc(C(F)(F)F)cc4C3=O)ccc21` (centres unmarked) [AB27151], the IC50 in assay [1] turned out to be 1040 nM; in assay [2], 2980 nM.
As for `O=C1c2cc(Cl)ccc2CCC1[n+]1ccc2c(ccn2C(=O)c2ccccc2)c1` (centres unmarked) [AB27214], the IC50 in assay [1] was 1740 nM; in assay [2], 6700 nM.
The corresponding values for `CC(c1ccccc1)[n+]1ccc2c(cnn2C2CCc3ccc(Cl)cc3C2=O)c1` (centres unmarked) [AB31806] are 257 nM and 2960 nM.
For the compound `Cn1cc(Cc2ccccc2)c2cc[n+](C3CCc4ccc(OC(F)(F)F)cc4C3=O)cc21` (centres unmarked) [AB27339], the values for the IC50 in assay [1] and in assay [2] were 341 nM and 2900 nM, respectively.
The corresponding values for `Cc1cccc(C(=O)Cn2ccc3c[n+](Cc4ccccc4)ccc32)c1` [AB27259] are 18 nM and 235 nM.
On to `Cc1cn(C2CCc3ccc(C(F)(F)F)cc3C2=O)c2cc[n+](Cc3ccccc3)cc12` (centres unmarked) [AB27464], for which the half-maximal inhibitory concentration (IC50) in assay [1] amounted to 175 nM; in assay [2], 1350 nM.
The corresponding values for `CCC(=O)N(Cc1ccccc1)c1cc[n+](CC(=O)c2ccc(C)cc2)cc1` [AB27232] are 290 nM and 3050 nM.
The corresponding values for `Cc1nc2c(s1)C(=O)C([n+]1ccc3c(ccn3Cc3ccccc3)c1)CC2` (centres unmarked) [AB27204] are 3450 nM and 13400 nM.
On to `Cc1ccc(C(=O)Cn2ccc3c[n+](Cc4ccccc4)ccc32)cc1` [AB27260], for which the IC50 in assay [1] was determined as 13 nM; in assay [2] it was 243 nM.
